In patent US7407648B2, “Merocyanine derivatives for cosmetic use” (Ciba Specialty Chemicals Corp., priority 2002, dated 2008):

Assay: UV absorption spectroscopic data (λmax, ε, E 1%/1 cm) of the merocyanine UV absorbers
Assay type: physicochemical
Set-up: λmax: unit not given beside the values
Conditions: for λmax [nm]: Table MC1; for E (1%, 1 cm) / ε / λmax / λmax (sh): Table MC3; for ε: at λmax; for λmax (sh): shoulder

Compound: CCCCC(CC)COC(=O)/C(C#N)=C1/C=C(NCCNC2=C/C(=C(\C#N)C(=O)OCC(CC)CCCC)CC(C)(C)C2)CC(C)(C)C1 (centres unmarked) [MC01]
- λmax [nm] (in MeOH): 362 (MeOH) nm

Compound: CCOC(=O)C(C(=O)OCC)=C1C=C(NCCNC2=CC(=C(C(=O)OCC)C(=O)OCC)CC(C)(C)C2)CC(C)(C)C1 [MC03]
- λmax [nm] (in MeOH): 372 (MeOH) nm

Compound: CC1(C)CC(NCCNC2=CC(=C(C#N)C#N)CC(C)(C)C2)=CC(=C(C#N)C#N)C1 [MC04]
- λmax [nm] (in MeOH): 361 (MeOH) nm

Compound: CCOC(=O)/C(=C1\C=C(NCCNC2=C/C(=C(\C(=O)OCC)S(=O)(=O)c3ccccc3)CCC2)CCC1)S(=O)(=O)c1ccccc1 [MC05]
- λmax [nm] (in MeOH): 362 (MeOH) nm

Compound: Cc1ccc(S(=O)(=O)/C(C#N)=C\C=C2\OCC(C)(C)N2C)cc1 [MC06]
- λmax [nm] (in MeOH): 374 (MeOH) nm

Compound: CCOC(=O)C(C(=O)OCC)=C1C=C(N2CCN(C3=CC(=C(C(=O)OCC)C(=O)OCC)CC(C)(C)C3)CC2)CC(C)(C)C1 [MC08]
- λmax [nm] (in MeOH): 373 (MeOH) nm

Compound: CCOC(=O)/C(C#N)=C1\C=C(NC2CCCCC2NC2=C/C(=C(/C#N)C(=O)OCC)CC(C)(C)C2)CC(C)(C)C1 (centres unmarked) [MC09]
- λmax [nm] (in MeOH): 370 (MeOH) nm

Compound: CCOC(=O)C(C(=O)OCC)=C1C=C(NC2CCCCC2NC2=CC(=C(C(=O)OCC)C(=O)OCC)CC(C)(C)C2)CC(C)(C)C1 (centres unmarked) [MC10]
- λmax [nm] (in MeOH): 362 (MeOH) nm

Compound: CCOC(=O)/C(C#N)=C1\C=C(NCCN(CCNC2=C/C(=C(/C#N)C(=O)OCC)CC(C)(C)C2)CCNC2=C/C(=C(\C#N)C(=O)OCC)CC(C)(C)C2)CC(C)(C)C1 [MC11]
- λmax [nm] (in MeOH): 375 (MeOH) nm

Compound: CN(CCCNC1=CC(=C2C(=O)CC(C)(C)CC2=O)CCC1)CCCNC1=CC(=C2C(=O)CC(C)(C)CC2=O)CCC1 [MC12]
- λmax [nm] (in MeOH): 392 (MeOH) nm

Compound: CC1(C)CC(NCCCOCCOCCNC2=CC(=C3C(=O)OC(C)(C)OC3=O)CC(C)(C)C2)=CC(=C2C(=O)OC(C)(C)OC2=O)C1 [MC13]
- λmax [nm] (in MeOH): 380 (MeOH) nm

Compound: CCOC(=O)C(C(=O)OCC)=C1C=C(NCc2ccc(CNC3=CC(=C(C(=O)OCC)C(=O)OCC)CCC3)cc2)CCC1 [MC14]
- λmax [nm] (in MeOH): 392 (MeOH) nm

Compound: CCCCCCNC(=O)/C(=C1\C=C(NCCCNC2=C/C(=C(\C(=O)NCCCCCC)S(=O)(=O)c3ccccc3)CCC2)CCC1)S(=O)(=O)c1ccccc1 [MC16]
- λmax [nm] (in MeOH): 390 (MeOH) nm

Compound: CCCCC(CC)COC(=O)/C(=C1\C=C(NCCCNC2=C/C(=C(\C(=O)OCC(CC)CCCC)S(=O)(=O)c3ccccc3)CCC2)CCC1)S(=O)(=O)c1ccccc1 (centres unmarked) [MC17]
- λmax [nm] (in MeOH): 385 (MeOH) nm

Compound: CCOC(=O)/C(C#N)=C1\C=C(NCCCCCCNC2=C/C(=C(/C#N)C(=O)OCC)CCC2)CCC1 [MC18]
- λmax [nm] (in MeOH): 384 (MeOH) nm

Compound: CCOC(=O)C(C(=O)OCC)=C1C=C(NCCCCCCNC2=CC(=C(C(=O)OCC)C(=O)OCC)CCC2)CCC1 [MC19]
- λmax [nm] (in MeOH): 373 (MeOH) nm

Compound: COc1cc(OC(=O)/C(C(C)=O)=C2/C=C(NCC(C)NC3=C/C(=C(\C(C)=O)C(=O)Oc4cc(OC)c(OC)c(OC)c4)CC(C)(C)C3)CC(C)(C)C2)cc(OC)c1OC (centres unmarked) [MC22]
- λmax [nm] (in MeOH): 395 (MeOH) nm

Compound: CCOC(=O)/C(C#N)=C1\C=C(NC2CC(C)(C)CC(C)(CNC3=C/C(=C(\C#N)C(=O)OCC)CC(C)(C)C3)C2)CC(C)(C)C1 (centres unmarked) [MC24]
- λmax [nm] (in MeOH): 388 (MeOH) nm

Compound: CCOC(=O)C(C(=O)OCC)=C1C=C(NCC2(C)CC(NC3=CC(=C(C(=O)OCC)C(=O)OCC)CC(C)(C)C3)CC(C)(C)C2)CC(C)(C)C1 (centres unmarked) [MC25]
- λmax [nm] (in MeOH): 395 (MeOH) nm

Compound: CCCCC(CC)CNC(=O)/C(C#N)=C1/C=C(N2CCN(C3=C/C(=C(\C#N)C(=O)NCC(CC)CCCC)CC(C)(C)C3)C(C)C2)CC(C)(C)C1 (centres unmarked) [MC26]
- λmax [nm] (in MeOH): 374 (MeOH) nm

Compound: CC(=O)/C(C(=O)OCC(C)C)=C1/C=C(NCC(C)(CNC2=C/C(=C(\C(C)=O)C(=O)OCC(C)C)CC(C)(C)C2)CNC2=C/C(=C(\C(C)=O)C(=O)OCC(C)C)CC(C)(C)C2)CC(C)(C)C1 [MC27]
- λmax [nm] (in MeOH): 385 (MeOH) nm

Compound: CCCCC(CC)(CCCNC1=C/C(=C(/C(=O)OCC)C(=O)c2ccc(OC)cc2)CCC1)CNC1=C/C(=C(/C(=O)OCC)C(=O)c2ccc(OCC)cc2)CCC1 (centres unmarked) [MC28]
- λmax [nm] (in MeOH): 373 (MeOH) nm

Compound: COCCOC(=O)/C(C(C)=O)=C1/C=C(NCCC(C)(C)CC(C)CNC2=C/C(=C(\C(C)=O)C(=O)OCCOC)CC(C)C2)CC(C)C1 (centres unmarked) [MC29]
- λmax [nm] (in MeOH): 383 (MeOH) nm

Compound: CC(=O)/C(C(=O)NCCNC(=O)/C(C(C)=O)=C1/C=C(N2CCCCC2)CCC1)=C1\C=C(N2CCCCC2)CCC1 [MC30]
- λmax [nm] (in MeOH): 385 (MeOH) nm

Compound: CC(=O)/C(C(=O)Nc1ccc(NC(=O)/C(C(C)=O)=C2/C=C(N3CCCC3)CC(C)(C)C2)cc1)=C1\C=C(N2CCCC2)CC(C)(C)C1 [MC31]
- λmax [nm] (in MeOH): 394 (MeOH) nm

Compound: CCOC(=O)/C(=C1\C=C(NC(C)CC)CCC1)C(OC)(C(=O)OCC)/C(C(=O)OCC)=C1/C=C(NC(C)CC)CCC1 (centres unmarked) [MC33]
- λmax [nm] (in MeOH): 375 (MeOH) nm

Compound: CC1(C)CC(NC2CCCCC2NC2=CC(=C(C#N)C#N)CC(C)(C)C2)=CC(=C(C#N)C#N)C1 (centres unmarked) [MC34]
- λmax [nm] (in MeOH): 383 (MeOH) nm

Compound: COC(=O)C(C(=O)OC)=C1C=C(NC2CCCCC2NC2=CC(=C(C(=O)OC)C(=O)OC)CCC2)CCC1 (centres unmarked) [MC35]
- λmax [nm] (in MeOH): 374 (MeOH) nm

Compound: CCCCCCN(C=CC=C(C(C)=O)S(=O)(=O)c1ccc(C)cc1)CC [MC36]
- λmax [nm] (in MeOH): 385 (MeOH) nm

Compound: CCCCC(CC)COC(=O)C(C#N)=CC=CN(CC)CC (centres unmarked) [MC39]
- λmax [nm] (in EtOH): 380 (EtOH) nm
- E (1%, 1 cm): 2037
- ε: 62400 L/mol/cm
- λmax (solvent not given): 380

Compound: CCCCCCCCOC(=O)/C(=C\C=C\N(CC)CC)S(=O)(=O)c1ccccc1 [MC172]
- E (1%, 1 cm): 1724
- ε: 72700 L/mol/cm
- λmax (solvent not given): 371

Compound: CCCCC(CC)COC(=O)/C(C#N)=C\C=C\N(CC)CCCN(/C=C/C=C(/C#N)C(=O)OCC(CC)CCCC)CC (centres unmarked) [MC173]
- E (1%, 1 cm): 1545
- ε: 92000 L/mol/cm
- λmax (solvent not given): 390

Compound: CCCCC(CC)COC(=O)/C(C#N)=C/C=C/N1CCN(/C=C/C=C(\C#N)C(=O)OCC(CC)CCCC)CC1 (centres unmarked) [MC174]
- E (1%, 1 cm): 2650
- ε: 146 379
- λmax (solvent not given): 398

Compound: CN(C)/C=C/C=C1C(=O)OC(C)(C)OC1=O [MC175]
- E (1%, 1 cm): 3022
- ε: 68000 L/mol/cm
- λmax (solvent not given): 383

Compound: COC(=O)C(=C/C=C/N(C)C)C(=O)OC [MC177]
- E (1%, 1 cm): 2488
- ε: 53000 L/mol/cm
- λmax (solvent not given): 373

Compound: COC(=O)C(=C/C=C/N1CCOCC1)C(=O)OC [MC178]
- E (1%, 1 cm): 1476
- ε: 37700 L/mol/cm
- λmax (solvent not given): 373

Compound: COC(=O)C(=C/C=C/N1CCCCC1)C(=O)OC [MC179]
- E (1%, 1 cm): 1953
- ε: 49500 L/mol/cm
- λmax (solvent not given): 377

Compound: COC(=O)C(=C/C=C/N(C(C)C)C(C)C)C(=O)OC [MC180]
- E (1%, 1 cm): 2111
- ε: 56800 L/mol/cm
- λmax (solvent not given): 378

Compound: CCOC(=O)C(=C/C=C/N1CCOCC1)C(=O)OCC [MC181]
- E (1%, 1 cm): 1684
- ε: 47700 L/mol/cm
- λmax (solvent not given): 371

Compound: CCCCN(/C=C/C=C(C(=O)OCC)C(=O)OCC)CCCC [MC182]
- E (1%, 1 cm): 1423
- ε: 60600 L/mol/cm
- λmax (solvent not given): 377

Compound: CCCCC(CC)COC(=O)/C(C#N)=C\C=C\N(CC)CCCCN(/C=C/C=C(/C#N)C(=O)OCC(CC)CCCC)CC (centres unmarked) [MC183]
- E (1%, 1 cm): 2570
- ε: 111000 L/mol/cm
- λmax (sh) (solvent not given): 370
- λmax (solvent not given): 386

Compound: CCCCC(CC)COC(=O)/C(C#N)=C1\C=C(N2CCOCC2)CC(C)(C)C1 (centres unmarked) [MC184]
- λmax (acetonitrile): 399

Compound: CCCCC(CC)COC(=O)/C(C#N)=C1\C=C(NC(C)CC)CC(C)(C)C1 (centres unmarked) [MC185]
- λmax (acetonitrile): 388
- λmax (sh) (acetonitrile): 368

Compound: CCOC(=O)C(C(=O)OCC)=C1C=C(N2CCOCC2)CC(C)(C)C1 [MC186]
- λmax (acetonitrile): 376
